Source: US11352322B2, “Cyclopropyl-amide compounds as dual LSD1/HDAC inhibitors” (Jubilant Epicore LLC, priority 2016, dated 2022)
Structures can show the parent of a compound that is named as a salt. Where two headings read alike, the source gives them in different places.

Experiments:
LSD1 = LSD1 (Homo sapiens (Human), UniProt O60341); experiment: TR-FRET Assay for LSD1
Experimental: TR-FRET Assay for LSD1 (Perkin Elmer)
Tranylcypromine (TCP), LSD1 inhibitor was procured from Selleckchem. […] Stop Solution containing 300 μM tranylcypromine in 1× LANCE Detection Buffer was added to the wells and incubated for 5 min at RT. Then, Detection mix containing 2 nM Eu-Ab and 50 nM ULight-Streptavidin in 1× LANCE Detection Buffer was prepared and added to the reaction mix. This mixture was incubated for 1 hour at room temperature.

[1] = In vivo PK studies in mice; set-up: species or system Male Balb/C mice; details: for C0 / Vd / Cmax / clearance / half-life / bioavailability: male, Balb/C, mouse, plasma; for clearance: read-out: Cl IV
Experimental: In Vivo PK Studies in Mice
All the animal experiments were approved by Institutional Animal Ethical Committee (IAEC/JDC/2015/72). Male Balb/C mice (n=24) were procured from Vivo Biotech, Hyderabad, India. The animals were housed in Jubilant Biosys animal house facility in a temperature (22±2° C.) and humidity (30-70%) controlled room (15 air changes/hour) with a 12:12 h light:dark cycles, had free access to rodent feed (Altromin Spezialfutter GmbH & Co. KG., Im Seelenkamp 20, D-32791, Lage, Germany) and water for one week before using for experimental purpose. Following ˜4 h fast (during the fasting period animals had free access to water) animals were divided into two groups (n=12/group). […] Post-dosing serial blood samples (100 μL, sparse sampling was done and at each time point three mice were used for blood sampling) were collected using Micropipettes (Microcaps®; catalogue number: 1-000-0500) through tail vein into polypropylene tubes containing K2.EDTA solution as an anti-coagulant at 0.25, 0.5, 1, 2, 4, 8, 10 and 24 (for oral study) and 0.12, 0.25, 0.5, 1, 2, 4, 8 and 24 (for intravenous study). Plasma was harvested by centrifuging the blood using Biofuge (Hereaus, Germany) at 1760 g for 5 min and stored frozen at −80±10° C. until analysis. Animals were allowed to access feed 2 h post-dosing.
Plasma concentration-time data of the compound was analyzed by non-compartmental method using Phoenix WinNonlin Version 6.3 (Pharsight Corporation, Mountain View, Calif.).

[2] = Metabolic stability in liver microsomes, HLM; details: 1 μM, NADPH
Experimental: (§4) The microsomal suspension was prepared by adding liver microsomes to 100 mM potassium phosphate buffer (pH7.4) to give a final protein concentration of 0.5 mg/mL. The stock solution of NCE (10 mM in DMSO) was added to the microsomes to provide a final concentration of 1 μM. […] Samples were vortexed and centrifuged at 5,000 rpm for 10 min to remove proteins. Supernatant were analyzed on LC-MS/MS.

[3] = molecular target: HDAC6 human recombinant enzyme (Homo sapiens (Human), UniProt Q9UBN7); experiment: Histone Deacetylase Assay (BPS Biosciences), HDAC6; type: biochemical
Sequence of HDAC6 human recombinant enzyme (Q9UBN7 whole entry): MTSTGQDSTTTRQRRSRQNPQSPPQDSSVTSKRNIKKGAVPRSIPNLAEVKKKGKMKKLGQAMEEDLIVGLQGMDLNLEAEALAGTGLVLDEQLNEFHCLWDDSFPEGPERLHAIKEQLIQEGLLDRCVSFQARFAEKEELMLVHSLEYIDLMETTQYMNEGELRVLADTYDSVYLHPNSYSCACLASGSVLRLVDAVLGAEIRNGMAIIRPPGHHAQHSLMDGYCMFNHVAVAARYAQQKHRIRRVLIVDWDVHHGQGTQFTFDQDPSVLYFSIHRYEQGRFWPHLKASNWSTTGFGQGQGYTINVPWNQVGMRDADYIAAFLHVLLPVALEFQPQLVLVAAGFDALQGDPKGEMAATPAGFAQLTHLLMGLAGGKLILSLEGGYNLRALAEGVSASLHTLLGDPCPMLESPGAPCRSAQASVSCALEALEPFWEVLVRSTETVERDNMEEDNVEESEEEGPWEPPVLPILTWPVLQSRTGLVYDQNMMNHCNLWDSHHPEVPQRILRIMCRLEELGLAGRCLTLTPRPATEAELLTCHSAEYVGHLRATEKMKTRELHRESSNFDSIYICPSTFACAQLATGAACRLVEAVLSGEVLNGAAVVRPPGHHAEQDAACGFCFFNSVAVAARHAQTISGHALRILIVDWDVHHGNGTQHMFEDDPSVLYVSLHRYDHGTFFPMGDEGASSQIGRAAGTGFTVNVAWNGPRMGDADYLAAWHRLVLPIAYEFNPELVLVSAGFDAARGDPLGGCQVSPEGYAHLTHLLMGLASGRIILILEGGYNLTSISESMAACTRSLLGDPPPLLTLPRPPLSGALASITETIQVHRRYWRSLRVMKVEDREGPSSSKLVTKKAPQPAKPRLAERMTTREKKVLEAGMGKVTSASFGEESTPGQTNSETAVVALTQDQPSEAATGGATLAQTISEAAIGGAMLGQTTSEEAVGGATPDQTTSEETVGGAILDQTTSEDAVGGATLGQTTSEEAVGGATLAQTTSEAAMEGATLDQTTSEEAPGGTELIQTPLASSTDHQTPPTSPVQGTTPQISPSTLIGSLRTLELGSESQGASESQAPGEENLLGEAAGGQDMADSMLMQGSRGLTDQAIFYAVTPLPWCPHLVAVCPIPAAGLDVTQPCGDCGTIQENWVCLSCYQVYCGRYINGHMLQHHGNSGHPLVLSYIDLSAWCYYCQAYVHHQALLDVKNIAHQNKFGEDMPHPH
Excerpt: Histone Deacetylase Assay (BPS Biosciences)
Histone deacetylase assay was done as per manufacturer's instructions.

[4] = Metabolic stability in liver microsomes, MLM; details: 1 μM, NADPH
Experimental: as §4

OCI-AML3 = experiment: cells; details: Homo sapiens, OCI-AML-3, 144 h, read-out: Anticancer profileration EC50 OCI-AML3
Experimental: (§1) Anticancer Activity: Alamar Blue Assay
(§2) Cells were seeded at 5000 cells/per well in 96-well tissue culture plate and incubated at 37° C./5% CO2. After 16-24 hours, fresh media was added to the wells. Compounds were then (1% DMSO conc.) added to the cells at 10 concentrations ranging from 10-0.0005 uM prepared in 3-fold serial dilutions. […] Alamar Blue™ reagent was added and incubated for 1-3 hours at 37° C./5% CO2. Plates were read on fluorescence reader at 540 nm excitation, 590 nm emission wave lengths.
(§3) As described above, compounds were tested for anticancer activities in different tumor cell lines and GI50 were determined.

HEL-92.1.7 = experiment: cells; details: Homo sapiens, HEL 92.1.7, 144 h, read-out: Anticancer profileration EC50 HEL-92.1.7
Experimental: as §1, §2, §3

MV-4-11 = experiment: cells; details: Homo sapiens, MV4-11, 144 h, read-out: Anticancer profileration EC50 MV-4-11
Experimental: as §1, §2, §3

MM1S = experiment: Anticancer activity: Alamar Blue assay, MM1S; type: cell-based; details: Homo sapiens, MM1.S, read-out: MM1S EC50
[5] = IV 2 mg/kg, read-out: t1/2 IV (converted)
[6] = PO 10 mg/kg, read-out: t1/2 PO (converted)
[7] = PO 50 mg/kg, read-out: t1/2 PO (converted)

Structure (SMILES): O=C(NO)c1ccc(CCCN2CCC(CNC3CC3c3ccc(-c4ccc(F)cc4)cc3)CC2)cc1 (stereo not drawn) [Example 57, 4-(3-(4-(((2-(4′-fluoro-[1,1′-biphenyl]-4-yl)cyclopropyl)amino)methyl)piperidin-1-yl)propyl)-N-hydroxybenzamide TFA Salt]
- IC50 (LSD1; read-out: LSD1 IC50): 21 nM
- AUC IV ([1]; IV 2 mg/kg): 169 ng/mL/h
- AUC PO ([1]; PO 10 mg/kg): 677 ng/mL/h
- C0 ([1]; IV 2 mg/kg): 260 ng/mL
- Vd ([1]; IV 2 mg/kg): 28 L/kg
- Cmax ([1]; IV 2 mg/kg, read-out: CMax IV): 254 ng/mL
- clearance ([1]; IV 2 mg/kg): 190 mL/min/kg
- half-life [1, 5]: 1.71 h
- Cmax ([1]; PO 10 mg/kg, read-out: CMax PO): 217 ng/mL
- half-life [1, 6]: 1.83 h
- bioavailability ([1]; dose IV/PO 2/10 mg/kg): 80%
- Metabolic stability HLM % remaining in 30 min [2]: 92%
- IC50 [3]: 59 nM
- Metabolic stability MLM % remaining in 30 min [4]: 75%

Structure (SMILES): COc1ccc(C2CC2NCC2CCN(CCCc3ccc(C(=O)NO)cc3)CC2)cc1 (stereo not drawn) [Example 51, N-hydroxy-4-(3-(4-(((2-(4-methoxyphenyl)cyclopropyl)amino)methyl)piperidin-1-yl)propyl)benzamide TFA Salt]
- IC50 (LSD1; read-out: LSD1 IC50): 6 nM
- Metabolic stability HLM % remaining in 30 min [2]: 74%
- IC50 [3]: 38 nM
- Metabolic stability MLM % remaining in 30 min [4]: 91%
- EC50 (OCI-AML3): 14 nM
- EC50 (HEL-92.1.7): 3 nM
- EC50 (MV-4-11): 31 nM

Structure (SMILES): O=C(NO)c1ccc(CCCN2CCC(CNC3CC3c3ccc(-c4ccc(Cl)cc4)cc3)CC2)cc1 (stereo not drawn) [Example 56, 4-(3-(4-(((2-(4′-chloro-[1,1′-biphenyl]-4-yl)cyclopropyl)amino)methyl)piperidin-1-yl)propyl)-N-hydroxybenzamide TFA Salt]
- IC50 (LSD1; read-out: LSD1 IC50): 2 nM
- Metabolic stability HLM % remaining in 30 min [2]: 87%
- IC50 [3]: 19 nM
- Metabolic stability MLM % remaining in 30 min [4]: 75%
- EC50 (OCI-AML3): 10 nM
- EC50 (HEL-92.1.7): 10 nM
- EC50 (MV-4-11): 7 nM

Structure (SMILES): COc1ccc(C2CC2NCc2cn3c(n2)CN(CCCc2ccc(C(=O)NO)cc2)CC3)cc1 (stereo not drawn) [Example 71, N-hydroxy-4-(3-(2-(((2-(4-methoxyphenyl)cyclopropyl)amino)methyl)-5,6-dihydroimidazo[1,2-a]pyrazin-7(8H)-yl)propyl)benzamide TFA Salt]
- IC50 (LSD1; read-out: LSD1 IC50): 1100 nM
- Metabolic stability HLM % remaining in 30 min [2]: 73%
- IC50 [3]: 28 nM
- Metabolic stability MLM % remaining in 30 min [4]: < 5%
- EC50 (OCI-AML3): 732 nM
- EC50 (HEL-92.1.7): 6050 nM
- EC50 (MV-4-11): 990 nM

Structure (SMILES): O=C(NO)c1ccc(/C=C/C(=O)N2CCC(CN[C@@H]3C[C@H]3c3ccc(F)cc3)CC2)cc1 [Example 115A, 4-((E)-3-(4-((((1R,2S)-2-(4-fluorophenyl)cyclopropyl)amino)methyl)piperidin-1-yl)-3-oxoprop-1-en-1-yl)-N-hydroxybenzamide TFA Salt]
- IC50 (LSD1; read-out: LSD1 IC50): 225 nM
- AUC IV ([1]; IV 2 mg/kg): 301 ng/mL/h
- AUC PO ([1]; PO 10 mg/kg): 638 ng/mL/h
- C0 ([1]; IV 2 mg/kg): 452 ng/mL
- Vd ([1]; IV 2 mg/kg): 8 L/kg
- Cmax ([1]; IV 2 mg/kg, read-out: CMax IV): 452 ng/mL
- clearance ([1]; IV 2 mg/kg): 108 mL/min/kg
- half-life [1, 5]: 0.87 h
- Cmax ([1]; PO 10 mg/kg, read-out: CMax PO): 354 ng/mL
- half-life [1, 6]: 2.78 h
- bioavailability ([1]; dose IV/PO 2/10 mg/kg): 43%
- Metabolic stability HLM % remaining in 30 min [2]: 59%
- IC50 [3]: 50 nM
- Metabolic stability MLM % remaining in 30 min [4]: 90%
- EC50 (MM1S; MM1S cells): 77 nM

Structure (SMILES): O=C(NO)c1ccc(CCCN2CCC(CNC3CC3c3ccc(-c4cncnc4)cc3)CC2)cc1 (stereo not drawn) [Example 61, N-hydroxy-4-(3-(4-(((2-(4-(pyrimidin-5-yl)phenyl)cyclopropyl)amino)methyl)piperidin-1-yl)propyl)benzamide TFA Salt]
- IC50 (LSD1; read-out: LSD1 IC50): 12 nM
- AUC IV ([1]; IV 10 mg/kg): 1287 ng/mL/h
- AUC PO ([1]; PO 50 mg/kg): 1920 ng/mL/h
- C0 ([1]; IV 10 mg/kg): 5340 ng/mL
- Vd ([1]; IV 10 mg/kg): 30 L/kg
- Cmax ([1]; IV 10 mg/kg, read-out: CMax IV): 2760 ng/mL
- clearance ([1]; IV 10 mg/kg): 125 mL/min/kg
- half-life ([1]; IV 10 mg/kg, read-out: t1/2 IV (converted)): 2.8 h
- Cmax ([1]; PO 50 mg/kg, read-out: CMax PO): 771 ng/mL
- half-life [1, 7]: 1.48 h
- bioavailability ([1]; dose IV/PO 10/50 mg/kg): 30%
- Metabolic stability HLM % remaining in 30 min [2]: 77%
- IC50 [3]: 121 nM
- Metabolic stability MLM % remaining in 30 min [4]: 66%
- EC50 (MM1S; MM1S cells): 49 nM

Structure (SMILES): Cn1cc(-c2ccc(C3CC3NCC3CCN(Cc4ccc(C(=O)Nc5ccccc5N)cc4)CC3)cc2)cn1 (stereo not drawn) [Example 142, N-(2-aminophenyl)-4-((4-(((2-(4-(1-methyl-1H-pyrazol-4-yl)phenyl)cyclopropyl)amino)methyl)piperidin-1-yl)methyl)benzamide TFA Salt]
- IC50 (LSD1; read-out: LSD1 IC50): 12 nM
- AUC IV ([1]; IV 2 mg/kg): 357 ng/mL/h
- AUC PO ([1]; PO 50 mg/kg): 3217 ng/mL/h
- C0 ([1]; IV 2 mg/kg): 198 ng/mL
- Vd ([1]; IV 2 mg/kg): 25 L/kg
- Cmax ([1]; IV 2 mg/kg, read-out: CMax IV): 150 ng/mL
- clearance ([1]; IV 2 mg/kg): 88 mL/min/kg
- half-life [1, 5]: 12.6 h
- Cmax ([1]; PO 50 mg/kg, read-out: CMax PO): 555 ng/mL
- half-life [1, 7]: 6.7 h
- bioavailability ([1]; dose IV/PO 2/50 mg/kg): 36%
- Metabolic stability HLM % remaining in 30 min [2]: 72%
- IC50 [3]: > 10000 nM
- Metabolic stability MLM % remaining in 30 min [4]: 52%
- EC50 (MM1S; MM1S cells): 120 nM

Structure (SMILES): O=C(NO)c1cc2c(s1)CCN(C(=O)CCCN1CCC(CNC3CC3c3ccc(F)cc3)CC1)C2 (stereo not drawn) [Example 106, 5-(4-(4-(((2-(4-fluorophenyl)cyclopropyl)amino)methyl)piperidin-1-yl)butanoyl)-N-hydroxy-4,5,6,7-tetrahydrothieno[3,2-c]pyridine-2-carboxamide TFA Salt]
- IC50 (LSD1; read-out: LSD1 IC50): 26 nM
- Metabolic stability HLM % remaining in 30 min [2]: 74%
- IC50 [3]: 35 nM
- Metabolic stability MLM % remaining in 30 min [4]: 92%
- EC50 (MM1S): 14 nM

Structure (SMILES): O=C(NO)c1cnc(NCCN2CCC(CNC3CC3c3ccc(F)cc3)CC2)nc1 (stereo not drawn) [Example 102, 2-((2-(4-(((2-(4-fluorophenyl)cyclopropyl)amino)methyl)piperidin-1-yl)ethyl)amino)-N-hydroxypyrimidine-5-carboxamide TFA Salt]
- IC50 (LSD1; read-out: LSD1 IC50): 22 nM
- Metabolic stability HLM % remaining in 30 min [2]: >99/>99%
- IC50 [3]: 75 nM
- Metabolic stability MLM % remaining in 30 min [4]: >99/>99%
- EC50 (MM1S): 5 nM

Structure (SMILES): O=C(NO)c1ccc(CN2CCn3cc(CNC4CC4c4ccc(F)cc4)nc3C2)cc1 (stereo not drawn) [Example 80, 4-((2-(((2-(4-fluorophenyl)cyclopropyl)amino)methyl)-5,6-dihydroimidazo[1,2-a]pyrazin-7(8H)-yl)methyl)-N-hydroxybenzamide TFA Salt]
- IC50 (LSD1; read-out: LSD1 IC50): 1500 nM
- Metabolic stability HLM % remaining in 30 min [2]: 82%
- IC50 [3]: 68 nM
- Metabolic stability MLM % remaining in 30 min [4]: 87%
- EC50 (MM1S): 331 nM

Structure (SMILES): Cc1noc(C)c1-c1ccc(C2CC2NCC2CCN(CCCc3ccc(C(=O)NO)cc3)CC2)cc1.O=C(O)C(F)(F)F (stereo not drawn) [Example 64, 4-(3-(4-(((2-(4-(3,5-dimethylisoxazol-4-yl)phenyl)cyclopropyl)amino)methyl)piperidin-1-yl)propyl)-N-hydroxybenzamide TFA Salt]
- IC50 (LSD1): 59 nM
- Metabolic stability HLM % remaining in 30 min [2]: 82%
- IC50 [3]: 58 nM
- Metabolic stability MLM % remaining in 30 min [4]: 77%
- EC50 (MM1S; MM1S cells): 11 nM

Structure (SMILES): Cn1cc(-c2ccc(C3CC3NCC3CCN(CCCc4ccc(C(=O)NO)cc4)CC3)cc2)cn1 (stereo not drawn) [Example 62, N-hydroxy-4-(3-(4-(((2-(4-(1-methyl-1H-pyrazol-4-yl)phenyl)cyclopropyl)amino)methyl)piperidin-1-yl)propyl) benzamide TFA Salt]
- IC50 (LSD1; read-out: LSD1 IC50): 43 nM
- Metabolic stability HLM % remaining in 30 min [2]: 77%
- IC50 [3]: 66 nM
- Metabolic stability MLM % remaining in 30 min [4]: 66%
- EC50 (MM1S; MM1S cells): 7 nM
